≈ marks a conversion by molar mass, not a printed value.
Experiments:
E. faecium LMG16003 [1] = experiment: Combined action with antibiotics (MIC reduction, checkerboard FICI); type: cell-based; settings: for MIC of antibiotic in combination with RES: RES at 8 μM
S. aureus LMG8224 = experiment: as above; type: cell-based, Staphylococcus aureus; settings: for MIC of antibiotic in combination with RES: RES at 4 μM; for FICI, antibiotic with 15 / FICI, antibiotic with 17: fractional inhibitory concentration index, EUCAST, * means relevant FICI values
[2] = system: panel of aerobic and anaerobic Gram-positive bacteria; experiment: organism not typed; type: cell-based
B. cereus ATCC10987 = experiment: microbe, parasite or virus in culture; type: cell-based, Bacillus cereus; settings: Bacillus cereus, ATCC10987, 20 h, read-out: Minimal Inhibition Concentration (MIC) B. cereus ATCC10987
E. faecalis V583 = experiment: microbe, parasite or virus in culture; type: cell-based, Enterococcus faecalis; settings: Enterococcus faecalis, V583, 20 h, read-out: Minimal Inhibition Concentration (MIC) E. faecalis V583
E. faecium LMG16003 [3] = experiment: microbe, parasite or virus in culture; type: cell-based; settings: Enterococcus faecium, LMG16003, 20 h, read-out: Minimal Inhibition Concentration (MIC) E. faecium LMG16003
S.aureus LMG8224 = experiment: microbe, parasite or virus in culture; type: cell-based, Staphylococcus aureus; settings: Staphylococcus aureus, LMG8224, 20 h, read-out: Minimal Inhibition Concentration (MIC) S.aureus LMG8224
C. difficile CECT531 = experiment: microbe, parasite or virus in culture; type: cell-based, Clostridioides difficile; settings: Clostridioides difficile, CECT531, 24 h, read-out: Minimal Inhibition Concentration (MIC) C. difficile CECT531
C. perfringens CECT376 = experiment: microbe, parasite or virus in culture; type: cell-based; settings: Clostridium perfringens, CECT376, 24 h, read-out: Minimal Inhibition Concentration (MIC) C. perfringens CECT376
C. beijerinckii B504 = experiment: MIC test, anaerobes; type: cell-based; settings: Clostridium beijerinckii, B504, 24 h; read-out: Minimal Inhibition Concentration (MIC) C. beijerinckii B504
Protocol: (§1) The resveratrol derivatives were serially diluted in cMHB (BD Difco) in 96-well microplates. Plates were then inoculated with the indicator bacteria at a final concentration of 5 × 10^5 CFU/mL and incubated at 37 °C for 20 h. In the case of the anaerobic bacteria (Clostridium and Clostridioides), the test was performed following the recommendation of CLSI for anaerobes[77] but using RCM medium instead of cMHB. The cultures were cultivated inside an anaerobic chamber at 37 °C for 24 h. All the tests were performed in triplicate.

C. ihumii AP5 = experiment: MIC test, anaerobes; type: cell-based; settings: 24 h; read-out: Minimal Inhibition Concentration (MIC) C. ihumii AP5
Protocol: as §1

C. botulinum CECT551 = experiment: microbe, parasite or virus in culture; type: cell-based; settings: Clostridium botulinum, CECT551, 24 h, read-out: Minimal Inhibition Concentration (MIC) C. botulinum CECT551
C. tetani CECT4629 = experiment: microbe, parasite or virus in culture; type: cell-based; settings: Clostridium tetani, CECT4629, 24 h, read-out: Minimal Inhibition Concentration (MIC) C. tetani CECT4629
B. cereus ATCC14579 = experiment: microbe, parasite or virus in culture; type: cell-based, Bacillus cereus; settings: Bacillus cereus, ATCC14579, 20 h, read-out: Minimal Inhibition Concentration (MIC) B. cereus ATCC14579
S.aureus LMG10147 = experiment: microbe, parasite or virus in culture; type: cell-based, Staphylococcus aureus; settings: Staphylococcus aureus, LMG10147, 20 h, read-out: Minimal Inhibition Concentration (MIC) S.aureus LMG10147
S.aureus LMG15975 = experiment: microbe, parasite or virus in culture; type: cell-based, Staphylococcus aureus; settings: Staphylococcus aureus, LMG15975, 20 h, read-out: Minimal Inhibition Concentration (MIC) S.aureus LMG15975
[4] = fractional inhibitory concentration index, EUCAST, * means relevant FICI values

polymyxin B
MIC of antibiotic in combination with 15 (E. faecium LMG16003 [1]; 15 at 4 μM): 21.3 ± 3.7 µM
MIC of antibiotic in combination with 15 (E. faecium LMG16003 [1]; 15 at 8 μM): 1.8 ± 0.2 µM
MIC of antibiotic in combination with RES (E. faecium LMG16003 [1]): >32 µM
MIC of antibiotic alone (Ab) (E. faecium LMG16003 [1]): >32 µM
FICI, antibiotic with 15 (E. faecium LMG16003 [1]; [4]): 0.27*
MIC of antibiotic in combination with 15 (S. aureus LMG8224; 15 at 2 μM): 8 ± 0 µM
MIC of antibiotic in combination with 15 (S. aureus LMG8224; 15 at 4 μM): 1 ± 0 µM
MIC of antibiotic in combination with 17 (S. aureus LMG8224; 17 at 2 μM): 13.3 ± 1.8 µM
MIC of antibiotic in combination with 17 (S. aureus LMG8224; 17 at 4 μM): 6.6 ± 0.9 µM
MIC of antibiotic in combination with RES (S. aureus LMG8224): >32 µM
MIC of antibiotic alone (Ab) (S. aureus LMG8224): >32 µM
FICI, antibiotic with 15 (S. aureus LMG8224): 0.25*
FICI, antibiotic with 17 (S. aureus LMG8224): 0.45*

Resveratrol-3-glucuronate [compound 8]
antibacterial activity against the Gram-positive panel [2]: did not show antibiotic activity

NCC[C@H](O)C(=O)N[C@@H]1C[C@H](N)[C@@H](O[C@H]2O[C@H](CN)[C@@H](O)[C@H](O)[C@H]2O)[C@H](O)[C@H]1O[C@H]1O[C@H](CO)[C@@H](O)[C@H](N)[C@H]1O [Ami, amikacin]
MIC of antibiotic alone (Ab) (E. faecium LMG16003 [1]): >32 µM
MIC of antibiotic in combination with 15 (S. aureus LMG8224; 15 at 2 μM): 2 ± 0 µM
MIC of antibiotic in combination with 15 (S. aureus LMG8224; 15 at 4 μM): 0.5 ± 0 µM
MIC of antibiotic in combination with 17 (S. aureus LMG8224; 17 at 2 μM): 3.3 ± 0.5 µM
MIC of antibiotic in combination with 17 (S. aureus LMG8224; 17 at 4 μM): 0.8 ± 0.1 µM
MIC of antibiotic in combination with RES (S. aureus LMG8224): 8 ± 0 µM
MIC of antibiotic alone (Ab) (S. aureus LMG8224): 8 ± 0 µM
FICI, antibiotic with 15 (S. aureus LMG8224): 0.31
FICI, antibiotic with 17 (S. aureus LMG8224): 0.60

CC[Si](CC)(CC)Oc1cc(/C=C/c2ccc(O)cc2)cc(O[Si](CC)(CC)CC)c1 [compound 21]
antibacterial activity against the Gram-positive panel [2]: not active or displayed very low antibacterial activity

CN[C@H](CC(C)C)C(=O)N[C@H]1C(=O)N[C@@H](CC(N)=O)C(=O)N[C@H]2C(=O)N[C@H]3C(=O)N[C@H](C(=O)N[C@H](C(=O)O)c4cc(O)cc(O)c4-c4cc3ccc4O)[C@H](O)c3ccc(c(Cl)c3)Oc3cc2cc(c3O[C@@H]2O[C@H](CO)[C@@H](O)[C@H](O)[C@H]2O[C@H]2C[C@](C)(N)[C@H](O)[C@H](C)O2)Oc2ccc(cc2Cl)[C@H]1O [vancomycin, reference compound]
MIC (B. cereus ATCC10987): 6 ± 2 µM (≈ 8.7 µg/mL)
MIC (E. faecalis V583): 9.8 ± 2.7 µM (≈ 14.2 µg/mL)
MIC (E. faecium LMG16003 [3]): > 32 µM
MIC (S.aureus LMG8224): 10.7 ± 2.7 µM (≈ 15.5 µg/mL)
MIC (C. difficile CECT531): 1.25 ± 0.75 µM (≈ 1.81 µg/mL)
MIC (C. perfringens CECT376): 0.18 ± 0.06 µM (≈ 0.261 µg/mL)

CC(C)(C)[Si](C)(C)Oc1ccc(/C=C/c2cc(OS(=O)(=O)O)cc(OS(=O)(=O)O)c2)cc1 [compound 34, 3,5-Disulfate-4′-tert-butyldimethylsilyl resveratrol]
MIC (C. beijerinckii B504): 32 µM (≈ 16.1 µg/mL)
MIC (C. ihumii AP5): 128 µM (≈ 64.3 µg/mL)
MIC (C. botulinum CECT551): 53.3 ± 10.6 µM (≈ 26.8 µg/mL)
MIC (C. perfringens CECT376): 128 µM (≈ 64.3 µg/mL)
MIC (C. tetani CECT4629): 5.3 ± 1.3 µM (≈ 2.66 µg/mL)

bacitracin
MIC of antibiotic in combination with 15 (E. faecium LMG16003 [1]; 15 at 4 μM): 16 ± 0 µM
MIC of antibiotic in combination with 15 (E. faecium LMG16003 [1]; 15 at 8 μM): 0.3 ± 0.2 µM
MIC of antibiotic in combination with 17 (E. faecium LMG16003 [1]; 17 at 2 μM): 32 ± 0 µM
MIC of antibiotic in combination with 17 (E. faecium LMG16003 [1]; 17 at 4 μM): 16 ± 0 µM
MIC of antibiotic in combination with RES (E. faecium LMG16003 [1]): >32 µM
MIC of antibiotic alone (Ab) (E. faecium LMG16003 [1]): >32 µM
FICI, antibiotic with 15 (E. faecium LMG16003 [1]; [4]): 0.27*
FICI, antibiotic with 17 (E. faecium LMG16003 [1]; [4]): 0.75*
MIC of antibiotic in combination with 15 (S. aureus LMG8224; 15 at 2 μM): 26.6 ± 3.7 µM
MIC of antibiotic in combination with 15 (S. aureus LMG8224; 15 at 4 μM): 4 ± 0 µM
MIC of antibiotic in combination with 17 (S. aureus LMG8224; 17 at 4 μM): 6.6 ± 0.9 µM
MIC of antibiotic in combination with RES (S. aureus LMG8224): >32 µM
MIC of antibiotic alone (Ab) (S. aureus LMG8224): >32 µM
FICI, antibiotic with 15 (S. aureus LMG8224): 0.31*
FICI, antibiotic with 17 (S. aureus LMG8224): 0.41*

CC(C)[Si](Oc1ccc(/C=C/c2cc(O[Si](C(C)C)(C(C)C)C(C)C)cc(O[Si](C(C)C)(C(C)C)C(C)C)c2)cc1)(C(C)C)C(C)C [compound 22]
antibacterial activity against the Gram-positive panel [2]: not active or displayed very low antibacterial activity

CCCCCCCC(=O)OC[C@H]1O[C@@H](Oc2cc(/C=C/c3ccc(OC)cc3)cc(OC)c2)[C@H](O)[C@@H](O)[C@@H]1O [compound 28]
MIC (B. cereus ATCC10987): 128 µM (≈ 69.7 µg/mL)
MIC (B. cereus ATCC14579): 128 µM (≈ 69.7 µg/mL)
MIC (S.aureus LMG8224): 128 µM (≈ 69.7 µg/mL)
MIC (S.aureus LMG10147): 128 µM (≈ 69.7 µg/mL)
MIC (S.aureus LMG15975): 128 µM (≈ 69.7 µg/mL)
MIC (C. beijerinckii B504): 32 µM (≈ 17.4 µg/mL)
MIC (C. ihumii AP5): 64 µM (≈ 34.9 µg/mL)
MIC (C. botulinum CECT551): 26.6 ± 5.3 µM (≈ 14.5 µg/mL)
MIC (C. difficile CECT531): 85.3 ± 21.3 µM (≈ 46.5 µg/mL)
MIC (C. perfringens CECT376): 128 µM (≈ 69.7 µg/mL)
MIC (C. tetani CECT4629): 16 µM (≈ 8.71 µg/mL)
antibacterial activity against the Gram-positive panel [2]: weak antibacterial activity
